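96-well plates; 48 h exposure; 5 concentrations. Endpoints by linear interpolation between flanking doses. Not reached: highest tested concentration assigned. GI50 = concentration required for 50% inhibition of growth.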 Activity calls are given as the source filed them. Cut-off read from the data, not from the text of the source: active = GI50 up to about 1.1 µM and inactive = higher.
How the values were obtained:
Assay in all cases: NCI-60 cell line screen, 48 h
[1] = test system: Hs-578T
[2] = test system: DMS-273
[3] = test system: HOP-18
[4] = test system: KM-20L2
[5] = test system: LXFL 529
[6] = test system: M19-MEL
[7] = test system: XF498
[8] = test system: DLD-1
[9] = test system: RXF 631

SMILES	GI50 [1]	GI50 [4]	GI50 [5]	GI50 [6]	GI50 [8]	further results
CC(C)c1ccc2nc3ccc(C(=O)NCCN(C)C)cn3c(=O)c2c1	15.2 µM (inactive)					
COC1=C(N2CC2)C(=O)c2nc3n(c2C1=O)CCC3	5.09 µM (inactive)					
COc1ccccc1NC(=S)N/N=C1\C(=O)Nc2ccccc21	> 100 µM (inactive)					
NCCN1C(=O)c2ccccc2C1(O)c1ccc(Cl)cc1 (stereo unspecified)	16.2 µM (inactive)					
O=C1OCC2=C1C(c1ccc(Cl)cc1)c1cc3c(cc1O2)OCO3 (stereo unspecified)	4.15 µM (inactive)					
O=[N+]([O-])c1cc([As](Br)c2ccc(O)c([N+](=O)[O-])c2)ccc1O	2.41 µM (inactive)					
COc1cccc(N(CN2CC=CC2=O)C(C)=O)c1	> 100 µM (inactive)					
COc1cc2c(c3c1c(=O)c1ccccc1n3C)C=CC1(CCCCC1)O2	2.54 µM (inactive)					
NC(=S)N/N=C\c1nccc2ccccc12	10.7 µM (inactive)					
CCCCc1c2c(nc3c1CCCC3O)/C(=C/c1ccccc1)CCC2 (stereo unspecified)		35.2 µM (inactive)	34.1 µM (inactive)	23.1 µM (inactive)		GI50 [2]: 20.7 µM (inactive); GI50 [3]: 24.4 µM (inactive); GI50 [7]: 13.2 µM (inactive)
CC(=O)OCC1OC(n2cnc3nc(Br)[nH]c(=O)c32)C(OC(C)=O)C1OC(C)=O (stereo unspecified)	> 100 µM (inactive)					
COP(=O)(OC)C(=O)N1N(c2ccc([N+](=O)[O-])cc2)C(=O)C(C)NC1(NNc1ccc([N+](=O)[O-])cc1)P(=O)(OC)OC (stereo unspecified)		> 100 µM (inactive)	57.8 µM (inactive)	> 100 µM (inactive)	> 100 µM (inactive)	GI50 [2]: > 100 µM (inactive); GI50 [7]: > 100 µM (inactive)
c1cc2nsnc2c2c[nH]cc12	48.1 µM (inactive)					
CCOC(=O)Cn1c(=O)c2cc(-c3ccccc3)cc3c(Cl)nc4c(OC)c(OC)cc1c4c32	6.97 µM (inactive)					
COc1cc(S(=O)(=O)Nc2nc(-c3ccc(N4C(=O)C(CC(=O)O)SC4c4cccs4)cc3)cs2)ccc1Cl (stereo unspecified)	46 µM (inactive)					
COC(=O)C(=O)C(C(=O)C(=O)Nc1ccc(Cl)cc1C)c1nc2ccc(C(=O)c3ccccc3)cc2nc1O (stereo unspecified)		> 100 µM (inactive)	65.2 µM (inactive)	> 100 µM (inactive)	55.8 µM (inactive)	GI50 [2]: 63.4 µM (inactive); GI50 [3]: > 100 µM (inactive); GI50 [9]: > 100 µM (inactive)
CCOC(=O)NC(=O)c1cn(CCCCCOC(=O)NCCCCCCNC(=O)OCCCCCn2cc(C(=O)NC(=O)OCC)c(=O)[nH]c2=O)c(=O)[nH]c1=O		> 100 µM (inactive)	> 100 µM (inactive)	> 100 µM (inactive)	> 100 µM (inactive)	GI50 [2]: > 100 µM (inactive); GI50 [3]: > 100 µM (inactive)
CC(=O)Nc1cc2ccc(=O)oc2cc1Cl	> 100 µM (inactive)					
CC(=O)c1ccc(NC(=O)C(=O)CC(=O)c2sc(-n3nc(-c4ccccc4)cc3-c3ccccc3)nc2C)cc1		> 100 µM (inactive)	> 100 µM (inactive)	> 100 µM (inactive)	> 100 µM (inactive)	GI50 [2]: > 100 µM (inactive); GI50 [9]: > 100 µM (inactive)
CC1(C)C2=CCCC(=O)[C@@]2(C)CC[C@@H]1O		> 100 µM (inactive)	> 100 µM (inactive)	> 100 µM (inactive)	> 100 µM (inactive)	GI50 [2]: > 100 µM (inactive); GI50 [3]: > 100 µM (inactive); GI50 [7]: > 100 µM (inactive)
O=C1c2ccccc2C(=O)C2C1C1C(=O)c3ccccc3C(=O)C21 (stereo unspecified)		> 100 µM (inactive)	> 100 µM (inactive)	45.4 µM (inactive)	15.2 µM (inactive)	GI50 [2]: > 100 µM (inactive); GI50 [3]: 8.69 µM (inactive); GI50 [9]: > 100 µM (inactive)
O=C1COc2cccnc2N1CCCCO	> 100 µM (inactive)					
C=C1CC[C@@H](CCC2CCC3(OC2)O[C@]2(O)CC[C@@]3(C)OC2(C)C)C(C)(C)[C@H]1C/C=C1\CCOC1=O (stereo partly specified)	20.5 µM (inactive)					
Cc1ccc(S(=O)(=O)NNC(=O)c2sc(-c3nc(C)c(C(=O)NNS(=O)(=O)c4ccc(C)cc4)s3)nc2C)cc1		> 100 µM (inactive)	62.8 µM (inactive)	> 100 µM (inactive)	73.8 µM (inactive)	
COC(=O)[C@]1(C)C(OC)=CC(=O)C2C1[C@H]1CCC[C@@H]21 (stereo partly specified)		> 100 µM (inactive)	> 100 µM (inactive)	> 100 µM (inactive)	> 100 µM (inactive)	GI50 [3]: > 100 µM (inactive); GI50 [7]: > 100 µM (inactive)
CC(=O)C(=N\Nc1ccc(Cl)cc1)/C(C)=N/c1ccc(C)cc1	44.4 µM (inactive)					
COc1cc(/C=C2\N=C(c3ccccc3)N(/N=C/c3cc4cc(C)ccc4nc3Cl)C2=O)ccc1O	40.6 µM (inactive)					
CCOC(=O)c1nnsc1NN	> 100 µM (inactive)					
COc1ccccc1N1C(=O)CSC1c1cccc(Oc2ccccc2)c1 (stereo unspecified)	20.9 µM (inactive)					
Cc1cc2c(c(C(N)=O)c1C)-c1cccc(F)c1C2=O		> 100 µM (inactive)	> 100 µM (inactive)	> 100 µM (inactive)	> 100 µM (inactive)	GI50 [2]: > 100 µM (inactive); GI50 [7]: 57.3 µM (inactive)

— ChEMBL document CHEMBL1201862, “PubChem BioAssay data set” (2004)
